Reference: patent US20240139220A1, “TREATMENT OF HPV INFECTION” (priority 2022, published 2024)
Like-named read-outs stand apart in the source and are kept apart here.

Assays:
Hs27 cells = assay: In vitro cytotoxicity, XTT, five days
Procedure: (§1) Three compounds (Compound I, Compound II and Compound III) were solubilized at 40 mM in DMSO and stored at −20° C. The test compounds were evaluated using a high test concentration of 50 μM. Serial half-logarithmic dilutions were performed for the in vitro cytotoxicity assays.
(§2) Cells listed in Table 70 were enumerated by Trypan Blue Dye exclusion method and seeded in the interior wells of a 96 well flat bottom microtiter plate at 100 μL/well. Proliferating cells were incubated overnight at 37° C./5% CO2 to allow the cells to adhere to the plates at approximately 70% confluency. Tissue culture medium was removed and replaced with 100 μL/well of fresh medium. One-hundred microliters (100 μL) of each compound at six concentrations was transferred to the 96-well plate containing the cells in triplicate. Table 70 lists the cell line, type of cell, source of cell stock, base tissue culture medium supplemented with 10% fetal bovine serum, 2 mM L-glutamine, 100 U/mL penicillin and 100 μg/mL streptomycin, and microtiter plate seeding density.
(§3) Following incubation at 37′C in a 5% CO2 incubator for five days, the test plates were stained with the tetrazolium dye XTT (2,3-bis(2-methoxy-4-nitro-5-sulfopheny1)-5-[(phenylamino)carbonyl]-2H-tetrazolium hydroxide). XTT-tetrazolium was metabolized by the mitochondrial enzymes of metabolically active cells to a soluble formazan product. XTT solution was prepared daily as a stock of 1 mg/ml in RPM11640. Phenazine methosulfate (PMS) solution was prepared at 0.15 mg/ml in PBS and stored in the dark at −20° C. XTT/PMS stock was prepared immediately before use by adding 40 μL of PMS per ml of XTT solution. Fifty microliters of XTT/PMS were added to each well of the plate and the plate was reincubated for 4 hours at 37° C. Plates were sealed with adhesive plate sealers and shaken gently or inverted several times to mix the soluble formazan product and the plate was read spectrophotometrically at 450/650 nm with a Molecular Devices Vmax plate reader.
(§4) Microsoft Excel 2010 was used to analyze and graph the raw data. CCso (50% reduction in cell viability) values are tabulated and provided. Raw data for cytotoxicity with a graphic representation of the data are provided in a printout summarizing the compound effect on cell viability.
(§5) Compounds I, II, and III were evaluated for cytotoxicity to proliferating Hs27, HeLa, C33A and HEK293 cells by measuring cell viability using XTI tetrazolium dye following five days in culture (Table 71).

C33A cells = assay: In vitro cytotoxicity, XTT, five days; conditions: read-out: C33A CC50
Procedure: as §1, §2, §3, §4, §5

HeLa cells = assay: In vitro cytotoxicity, XTT, five days
Procedure: as §1, §2, §3, §4, §5

[1] = Behavior under compression, grinding simulation and granulation simulation (XRPD); assay type: physicochemical
Procedure: About 10 mg of Compound I monofumarate Pattern 1 (Example 7) was compressed for 5 minutes at 10 MPa with a hydraulic press. XRPD characterization was performed to investigate the polymorphic behavior under compression.
About 10 mg of Compound I monofumarate Pattern 1 (Example 7) was ground manually with a mortar and pestle for 5 min. Form transformation and degree of crystallinity was evaluated by XRPD.
Water or ethanol was added drop wise to about 10 mg of Compound I monofumarate Pattern 1 (Example 7) until solids were wetted sufficiently. The samples were ground manually with a mortar and pestle for 3 minutes. Samples are dried under ambient condition for 10 min. Form transformation and degree of crystallinity were evaluated by XRPD.

[2] = Hygroscicity by Dynamic Vapor Sorption (DVS) at 25° C.; assay type: physicochemical
Procedure: Hygroscopicity was investigated by DVS at 25° C., using the following method: […]

[3] = Solubility in buffers, water and simulated vaginal fluid at 37° C.; assay type: physicochemical
Procedure: About 4 mg of Compound I Pattern 1 was added into 2 mL of buffer solution.
(§6) Solubility was tested in five media, pH 3.0 citrate buffer, pH 4.5 acetate buffer, pH 6.8 phosphate buffer, water, simulated vaginal fluid (pH 4.2) at 37° C. for 0.5 h and 2 h.
The salt amount used is equivalent to 10 mg anhydrous free base. […] The obtained clear solutions were analyzed by pH meter for pH, and solubility was determined by observation.
as §6

[4] = Bulk stability, accelerated storage for one week (HPLC, XRPD); assay type: physicochemical
Procedure: Bulk stability: Accelerated stability experiments were conducted at 25° C./92% RH and 40° C./75% RH in an open container, 60° C. in a tight container for one week.
Samples were characterized by XRPD and HPLC and inspected for color change.
Accelerated stability experiments were conducted at 25° C./92% RH in an open container, at 40° C./75% RH in an open container, and at 60° C. in a tight container for one week.

[5] = Approximate solubility in solvents at 25° C. and 50° C. by visual observation; assay type: physicochemical
Procedure: The maximum volume of each solvent added was 1 mL. Approximate solubility was determined by visual observation.
Maximum volume of each solvent added was 1 mL. Approximate solubility was determined by visual observation.

HEK293 cells = test system: HEK293 cells
Procedure: as §1
Cells listed in Table 70 were enumerated by Trypan Blue Dye exclusion method and seeded in the interior wells of a 96 well flat bottom microtiter plate at 100 μL/well. Proliferating cells were incubated overnight at 37° C./5% CO2 to allow the cells to adhere to the plates at approximately 70% confluency. Tissue culture medium was removed and replaced with 100 μL/well of fresh medium. […]
Following incubation at 37′C in a 5% CO2 incubator for five days, the test plates were stained with the tetrazolium dye XTT (2,3-bis(2-methoxy-4-nitro-5-sulfopheny1)-5-[(phenylamino)carbonyl]-2H-tetrazolium hydroxide). […] Plates were sealed with adhesive plate sealers and shaken gently or inverted several times to mix the soluble formazan product and the plate was read spectrophotometrically at 450/650 nm with a Molecular Devices Vmax plate reader. […]
as §5

[6] = Simulated vaginal fluid (pH adjusted with 0.2N NaOH)
[7] = 25° C., 92% RH, open container, one week
[8] = 40° C., 75% RH, open container, one week
[9] = 60° C., tight container, one week

CCOC(=O)C(C)NP(=O)(COCCn1cnc2c(OC)nc(N)nc21)OCc1ccccc1 (mixture of isomers) [ABl2280]
CC50 (Hs27 cells; read-out: Hs27 CC50, Hs27 cells, XTT, five days): 22.9 µM
CC50 (C33A cells): 0.28 µM
CC50 (HeLa cells; read-out: HeLa CC50, HeLa cells, XTT, five days): 18.6 µM

CCOC(=O)C(C)NP(=O)(COCCn1cnc2c(OC)nc(N)nc21)OCc1ccccc1.O=C(O)C=CC(=O)O (mixture of isomers) [Compound I Monofumarate Pattern 1]
Polymorphic behavior under compression (XRPD) ([1]; compressed for 5 minutes at 10 MPa): no form change was observed
Form transformation and crystallinity after grinding (XRPD) ([1]; ground manually with mortar and pestle for 5 min): no form change was observed; crystallinity slightly decreased
Form transformation after granulation simulation (XRPD) ([1]; wetted with water or ethanol, ground 3 minutes, dried 10 min): neither in ethanol, nor in water form change was observed
D. (%) Cycle 1 (Desorption) ([2]; 0% RH, 25° C.): 0.49%
D. (%) Cycle 2 (Desorption) ([2]; 0% RH, 25° C.): 0.09%
S. (%) Cycle 1 (Sorption) ([2]; 0% RH, 25° C.): 0.49%
S. (%) Cycle 2 (Sorption) ([2]; 0% RH, 25° C.): 0.09%
D. (%) Cycle 1 (Desorption) ([2]; 10% RH, 25° C.): 0.62%
D. (%) Cycle 2 (Desorption) ([2]; 10% RH, 25° C.): 0.15%
S. (%) Cycle 1 (Sorption) ([2]; 10% RH, 25° C.): 0.56%
S. (%) Cycle 2 (Sorption) ([2]; 10% RH, 25° C.): 0.18%
D. (%) Cycle 1 (Desorption) ([2]; 20% RH, 25° C.): 0.71%
D. (%) Cycle 2 (Desorption) ([2]; 20% RH, 25° C.): 0.35%
S. (%) Cycle 1 (Sorption) ([2]; 20% RH, 25° C.): 0.66%
S. (%) Cycle 2 (Sorption) ([2]; 20% RH, 25° C.): 0.27%
D. (%) Cycle 1 (Desorption) ([2]; 30% RH, 25° C.): 0.81%
D. (%) Cycle 2 (Desorption) ([2]; 30% RH, 25° C.): 0.47%
S. (%) Cycle 1 (Sorption) ([2]; 30% RH, 25° C.): 0.76%
S. (%) Cycle 2 (Sorption) ([2]; 30% RH, 25° C.): 0.37%
D. (%) Cycle 1 (Desorption) ([2]; 40% RH, 25° C.): 0.93%
D. (%) Cycle 2 (Desorption) ([2]; 40% RH, 25° C.): 0.56%
S. (%) Cycle 1 (Sorption) ([2]; 40% RH, 25° C.): 0.86%
S. (%) Cycle 2 (Sorption) ([2]; 40% RH, 25° C.): 0.47%
D. (%) Cycle 2 (Desorption) ([2]; 50% RH, 25° C.): 0.67%
S. (%) Cycle 1 (Sorption) ([2]; 50% RH, 25° C.): 0.71%
D. (%) Cycle 2 (Desorption) ([2]; 60% RH, 25° C.): 0.85%
S. (%) Cycle 1 (Sorption) ([2]; 60% RH, 25° C.): 0.85%
D. (%) Cycle 2 (Desorption) ([2]; 70% RH, 25° C.): 1.04%
S. (%) Cycle 1 (Sorption) ([2]; 70% RH, 25° C.): 1.02%
D. (%) Cycle 2 (Desorption) ([2]; 80% RH, 25° C.): 1.30%
S. (%) Cycle 1 (Sorption) ([2]; 80% RH, 25° C.): 1.27%
D. (%) Cycle 2 (Desorption) ([2]; 90% RH, 25° C.): 1.84%
S. (%) Cycle 1 (Sorption) ([2]; 90% RH, 25° C.): 1.78%
D. (%) Cycle 2 (Desorption) ([2]; 95% RH, 25° C.): 2.89%
S. (%) Cycle 1 (Sorption) ([2]; 95% RH, 25° C.): 2.89%
XRPD after DVS test ([2]; cycle 40-0-95-0-40% RH, 25° C.): No form change,
Water uptake ([2]; up to 95% RH, DVS 25° C.): about 2.9%
Solubility 0.5 hrs [3, 6]: >2000 µg/mL
Solubility 2 hrs [3, 6]: >2000 µg/mL
pH at 2 hrs [3, 6]: (5.39)
Solubility 0.5 hrs ([3]; Water): >2000 µg/mL
Solubility 2 hrs ([3]; Water): >2000 µg/mL
pH at 2 hrs ([3]; Water): (3.11)
Solubility 0.5 hrs ([3]; pH 3.0 100 mM citrate buffer): >2000 µg/mL
Solubility 2 hrs ([3]; pH 3.0 100 mM citrate buffer): >2000 µg/mL
pH at 2 hrs ([3]; pH 3.0 100 mM citrate buffer): (3.05)
Solubility 0.5 hrs ([3]; pH 4.5 50 mM acetate buffer): >2000 µg/mL
Solubility 2 hrs ([3]; pH 4.5 50 mM acetate buffer): >2000 µg/mL
pH at 2 hrs ([3]; pH 4.5 50 mM acetate buffer): (4.36)
Solubility 0.5 hrs ([3]; pH 6.8 50 mM phosphate buffer): >2000 µg/mL
Solubility 2 hrs ([3]; pH 6.8 50 mM phosphate buffer): >2000 µg/mL
pH at 2 hrs ([3]; pH 6.8 50 mM phosphate buffer): (6.49)
XRPD ([4]; 25° C., 84% RH, open container, 2 days): No change
HPLC (chemical purity) [4, 7]: 98.2%
XRPD [4, 7]: No change
HPLC (chemical purity) [4, 8]: 95.6%
XRPD [4, 8]: No change
HPLC (chemical purity) [4, 9]: 95.5%
XRPD [4, 9]: No change
HPLC (chemical purity) ([4]; Initial): 98.6%
Solubility ([5]; Acetone, 25° C.): 50000 to 100000 µg/mL
Solubility ([5]; Acetone, 50° C.): 125000 to 167000 µg/mL
Solubility ([5]; Acetonitrile (ACN), 25° C.): 20000 to 25000 µg/mL
Solubility ([5]; Acetonitrile (ACN), 50° C.): 20000 to 33000 µg/mL
Solubility ([5]; Dichloromethane (DCM), 25° C.): <2000 µg/mL
Solubility ([5]; Dichloromethane (DCM), 50° C.): <10000 µg/mL
Solubility ([5]; Ethanol (EtOH), 25° C.): >100000 µg/mL
Solubility ([5]; Ethanol (EtOH), 50° C.): 250000 to 500000 µg/mL
Solubility ([5]; Ethyl acetate (EA), 25° C.): <2000 µg/mL
Solubility ([5]; Ethyl acetate (EA), 50° C.): <10000 µg/mL
Solubility ([5]; Heptanes, 25° C.): <2000 µg/mL
Solubility ([5]; Heptanes, 50° C.): <10000 µg/mL
Solubility ([5]; Isopropanol (IPA), 25° C.): 50000 to 100000 µg/mL
Solubility ([5]; Isopropanol (IPA), 50° C.): 71000 to 84000 µg/mL
Solubility ([5]; Isopropyl acetate (IPAc), 25° C.): <2000 µg/mL
Solubility ([5]; Isopropyl acetate (IPAc), 50° C.): <10000 µg/mL
Solubility ([5]; Methanol (MeOH), 25° C.): >100000 µg/mL
Solubility ([5]; Methanol (MeOH), 50° C.): >500000 µg/mL
Solubility ([5]; Methyl ethyl ketone (MEK), 25° C.): 20000 to 25000 µg/mL
Solubility ([5]; Methyl ethyl ketone (MEK), 50° C.): 22000 to 25000 µg/mL
Solubility ([5]; Methyl t-butyl ether (MTBE), 25° C.): <2000 µg/mL
Solubility ([5]; Methyl t-butyl ether (MTBE), 50° C.): <10000 µg/mL
Solubility ([5]; Tetrahydrofuran (THF), 25° C.): >100000 µg/mL
Solubility ([5]; Tetrahydrofuran (THF), 50° C.): 250000 to 500000 µg/mL
Solubility ([5]; Toluene, 25° C.): <2000 µg/mL
Solubility ([5]; Toluene, 50° C.): <10000 µg/mL
Solubility ([5]; Water, 25° C.): 14000 to 17000 µg/mL
Solubility ([5]; Water, 50° C.): 22000 to 25000 µg/mL

CCOC(=O)C(C)NP(=O)(COCCn1cnc2c(OC)nc(N)nc21)OCc1ccccc1 (single isomer, unassigned; isomer 1) [ABl2280 Isomer 1]
CC50 (HEK293 cells): < 0.16 µM
CC50 (Hs27 cells): 23.2 µM
CC50 (C33A cells): 0.2 µM
CC50 (HeLa cells): 15.1 µM

CCOC(=O)C(C)NP(=O)(COCCn1cnc2c(OC)nc(N)nc21)OCc1ccccc1 (single isomer, unassigned; isomer 2) [ABl2280 Isomer 2]
CC50 (HEK293 cells): < 0.16 µM
CC50 (Hs27 cells): 7.62 µM
CC50 (C33A cells): < 0.16 µM
CC50 (HeLa cells): 16.9 µM
